Assays:
Assay in all cases: KINOMEscan
Format in all cases: binding
Details in all cases: read-out: percent of control
CAMK1D = CAMK1D (Homo sapiens (Human), UniProt Q8IU85)
Protocol: (§1) In vitro profiling of Compound I-2 (1 μM) was performed using the DiscoveRx KINOMEscan® platform.

IGF1R = IGF1R (Homo sapiens (Human), UniProt P08069)
Protocol: as §1

PFCDPK1(P.falciparum) = PFCDPK1(P.falciparum) (Plasmodium falciparum (isolate 3D7), UniProt P62344)
Protocol: as §1

PFTAIRE2 = PFTAIRE2 (Homo sapiens (Human), UniProt Q96Q40)
Protocol: as §1

YANK3 = YANK3 (Homo sapiens (Human), UniProt Q86UX6)
Protocol: as §1

TAOK1 = TAOK1 (Homo sapiens (Human), UniProt Q7L7X3)
Protocol: as §1

JNK1 = JNK1 (Homo sapiens (Human), UniProt P45983)
Protocol: as §1

[1] = target: ABL1(F317I)-phosphorylated (Homo sapiens (Human), UniProt P00519, F317I)
Protocol: as §1

NEK11 = NEK11 (Homo sapiens (Human), UniProt Q8NG66)
Protocol: as §1

HIPK3 = HIPK3 (Homo sapiens (Human), UniProt Q9H422)
Protocol: as §1

HPK1 = HPK1 (Homo sapiens (Human), UniProt Q92918)
Protocol: as §1

CSNK1G3 = CSNK1G3 (Homo sapiens (Human), UniProt Q9Y6M4)
CSNK1G3, sequence (Q9Y6M4 whole entry): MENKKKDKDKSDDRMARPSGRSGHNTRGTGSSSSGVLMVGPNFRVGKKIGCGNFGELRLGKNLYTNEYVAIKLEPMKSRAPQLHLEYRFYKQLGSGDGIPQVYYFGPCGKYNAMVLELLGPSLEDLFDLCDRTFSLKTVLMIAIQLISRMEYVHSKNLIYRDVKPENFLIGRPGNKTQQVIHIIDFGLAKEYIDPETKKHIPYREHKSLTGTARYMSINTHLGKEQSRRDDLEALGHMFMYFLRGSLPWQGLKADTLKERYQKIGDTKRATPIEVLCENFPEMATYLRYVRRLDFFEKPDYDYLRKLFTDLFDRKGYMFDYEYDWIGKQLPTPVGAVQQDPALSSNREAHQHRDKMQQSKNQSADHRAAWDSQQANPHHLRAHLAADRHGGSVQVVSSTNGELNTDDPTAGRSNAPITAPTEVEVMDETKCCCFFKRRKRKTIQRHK
Protocol: as §1

GSK3B = GSK3B (Homo sapiens (Human), UniProt P49841)
Protocol: as §1

ULK = ULK (Homo sapiens (Human), UniProt O75385)
Protocol: as §1

FLT3-autoinhibited = FLT3-autoinhibited (Homo sapiens (Human), UniProt P36888)
Protocol: as §1

ERK8 = ERK8 (Homo sapiens (Human), UniProt Q8TD08)
Protocol: as §1

PIP5K2B = PIP5K2B (Homo sapiens (Human), UniProt P78356)
Protocol: as §1

ACVR1 = ACVR1 (Homo sapiens (Human), UniProt Q04771)
Protocol: as §1

BMPR2 = BMPR2 (Homo sapiens (Human), UniProt Q13873)
BMPR2, sequence (Q13873 27-1038): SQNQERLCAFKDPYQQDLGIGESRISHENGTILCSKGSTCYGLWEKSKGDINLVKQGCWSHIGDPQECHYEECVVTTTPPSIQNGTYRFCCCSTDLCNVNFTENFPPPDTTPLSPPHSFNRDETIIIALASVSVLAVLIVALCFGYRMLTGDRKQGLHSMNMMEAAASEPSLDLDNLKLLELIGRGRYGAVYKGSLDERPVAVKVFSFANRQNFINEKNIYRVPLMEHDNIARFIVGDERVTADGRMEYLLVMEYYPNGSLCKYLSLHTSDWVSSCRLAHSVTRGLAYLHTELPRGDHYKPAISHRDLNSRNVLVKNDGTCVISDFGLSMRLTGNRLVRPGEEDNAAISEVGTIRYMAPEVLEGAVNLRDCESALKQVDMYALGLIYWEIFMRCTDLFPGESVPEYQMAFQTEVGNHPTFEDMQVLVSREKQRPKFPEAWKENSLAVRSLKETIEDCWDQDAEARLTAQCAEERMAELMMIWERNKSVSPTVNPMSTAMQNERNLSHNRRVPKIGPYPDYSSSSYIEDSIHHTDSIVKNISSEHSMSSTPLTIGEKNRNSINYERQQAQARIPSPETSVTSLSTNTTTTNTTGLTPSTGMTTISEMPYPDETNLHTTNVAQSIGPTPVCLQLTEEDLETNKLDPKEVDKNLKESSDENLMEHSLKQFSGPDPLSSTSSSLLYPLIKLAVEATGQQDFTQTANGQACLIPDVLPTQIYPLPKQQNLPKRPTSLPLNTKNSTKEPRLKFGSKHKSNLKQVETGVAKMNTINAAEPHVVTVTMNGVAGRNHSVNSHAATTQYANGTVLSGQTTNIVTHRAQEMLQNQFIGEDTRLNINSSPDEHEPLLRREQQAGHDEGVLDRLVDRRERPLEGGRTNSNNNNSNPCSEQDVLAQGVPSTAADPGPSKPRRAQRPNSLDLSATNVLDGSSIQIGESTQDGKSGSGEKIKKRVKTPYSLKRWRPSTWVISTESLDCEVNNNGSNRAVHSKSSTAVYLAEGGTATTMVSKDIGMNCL
Protocol: as §1

[2] = target: RSK1 (Kin.Dom.1-N-terminal) (Homo sapiens (Human), UniProt Q15418)
Protocol: as §1

[3] = target: RPS6KA4 (Kin.Dom.2-C-terminal) (Homo sapiens (Human), UniProt O75676)
Protocol: as §1

CDK4-cyclinD1 = CDK4-cyclinD1 (Homo sapiens (Human), UniProt P11802)
Protocol: as §1

[4] = target: RSK2 (Kin.Dom.2-C-terminal) (Homo sapiens (Human), UniProt P51812)
Protocol: as §1

PDGFRA = PDGFRA (Homo sapiens (Human), UniProt P16234)
Protocol: as §1

MST3 = MST3 (Homo sapiens (Human), UniProt Q9Y6E0)
Protocol: as §1

CDK5 = CDK5 (Homo sapiens (Human), UniProt Q00535)
CDK5, sequence (Q00535 whole entry): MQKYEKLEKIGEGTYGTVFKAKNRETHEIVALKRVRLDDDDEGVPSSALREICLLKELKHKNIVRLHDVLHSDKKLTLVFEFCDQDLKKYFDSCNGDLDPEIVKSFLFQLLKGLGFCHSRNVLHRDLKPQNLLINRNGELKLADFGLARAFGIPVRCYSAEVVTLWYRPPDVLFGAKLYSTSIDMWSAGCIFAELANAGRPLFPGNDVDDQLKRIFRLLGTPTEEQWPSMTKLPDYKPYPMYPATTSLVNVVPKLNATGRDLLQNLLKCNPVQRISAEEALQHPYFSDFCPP
Protocol: as §1

PCTK1 = PCTK1 (Homo sapiens (Human), UniProt Q00536)
Protocol: as §1

ADCK4 = ADCK4 (Homo sapiens (Human), UniProt Q96D53)
ADCK4, sequence (Q96D53 whole entry): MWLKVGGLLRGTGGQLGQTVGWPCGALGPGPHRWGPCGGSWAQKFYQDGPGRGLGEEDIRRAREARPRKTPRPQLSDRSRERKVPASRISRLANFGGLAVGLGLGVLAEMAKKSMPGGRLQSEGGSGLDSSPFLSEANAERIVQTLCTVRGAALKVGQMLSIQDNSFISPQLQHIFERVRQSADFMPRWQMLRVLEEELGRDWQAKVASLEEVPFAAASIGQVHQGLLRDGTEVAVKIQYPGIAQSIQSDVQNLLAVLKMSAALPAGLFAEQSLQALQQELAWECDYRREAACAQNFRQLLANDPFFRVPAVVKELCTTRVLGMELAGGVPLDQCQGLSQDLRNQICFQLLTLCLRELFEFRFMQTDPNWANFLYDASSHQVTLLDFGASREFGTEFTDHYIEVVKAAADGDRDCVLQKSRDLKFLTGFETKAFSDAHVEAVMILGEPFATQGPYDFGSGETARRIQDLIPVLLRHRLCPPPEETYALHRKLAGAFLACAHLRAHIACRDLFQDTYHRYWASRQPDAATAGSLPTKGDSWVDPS
Protocol: as §1

SGK = SGK (Homo sapiens (Human), UniProt O00141)
Protocol: as §1

EGFR(G719S) = EGFR(G719S) (Homo sapiens (Human), UniProt P00533, G719S)
EGFR(G719S), sequence (P00533 25-1210 G719S): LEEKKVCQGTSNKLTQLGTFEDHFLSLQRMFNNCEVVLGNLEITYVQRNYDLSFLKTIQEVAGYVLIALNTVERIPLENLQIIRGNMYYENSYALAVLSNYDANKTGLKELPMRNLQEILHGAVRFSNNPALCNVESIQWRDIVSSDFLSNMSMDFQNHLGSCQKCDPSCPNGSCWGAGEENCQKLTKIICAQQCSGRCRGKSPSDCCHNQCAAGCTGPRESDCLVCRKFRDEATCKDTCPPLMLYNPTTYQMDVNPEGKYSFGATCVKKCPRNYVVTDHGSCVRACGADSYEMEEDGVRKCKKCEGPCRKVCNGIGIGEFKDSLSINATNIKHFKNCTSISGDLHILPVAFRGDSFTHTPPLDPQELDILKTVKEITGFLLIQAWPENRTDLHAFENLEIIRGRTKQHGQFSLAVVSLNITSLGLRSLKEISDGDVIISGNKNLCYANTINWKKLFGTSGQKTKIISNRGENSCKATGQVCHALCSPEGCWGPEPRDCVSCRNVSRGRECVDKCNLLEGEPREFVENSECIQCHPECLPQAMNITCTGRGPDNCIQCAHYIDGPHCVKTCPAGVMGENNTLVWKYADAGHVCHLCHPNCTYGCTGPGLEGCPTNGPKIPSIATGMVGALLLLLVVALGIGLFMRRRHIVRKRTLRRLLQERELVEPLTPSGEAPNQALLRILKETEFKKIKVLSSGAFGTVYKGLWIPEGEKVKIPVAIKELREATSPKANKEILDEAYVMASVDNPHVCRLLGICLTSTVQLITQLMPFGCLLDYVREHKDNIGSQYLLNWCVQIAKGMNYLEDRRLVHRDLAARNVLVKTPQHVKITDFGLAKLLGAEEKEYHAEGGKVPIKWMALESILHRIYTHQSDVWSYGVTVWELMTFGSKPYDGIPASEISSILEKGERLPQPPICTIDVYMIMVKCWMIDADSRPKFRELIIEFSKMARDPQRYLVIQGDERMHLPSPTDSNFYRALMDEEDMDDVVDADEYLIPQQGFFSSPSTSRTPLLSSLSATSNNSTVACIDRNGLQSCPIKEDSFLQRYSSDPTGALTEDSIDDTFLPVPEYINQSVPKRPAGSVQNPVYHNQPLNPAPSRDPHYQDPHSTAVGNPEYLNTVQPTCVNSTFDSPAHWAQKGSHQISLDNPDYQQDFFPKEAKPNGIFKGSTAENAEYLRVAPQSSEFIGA
Protocol: as §1

CSNK2A2 = CSNK2A2 (Homo sapiens (Human), UniProt P19784)
Protocol: as §1

[5] = target: ABL1(Q252H)-phosphorylated (Homo sapiens (Human), UniProt P00519, Q252H)
Protocol: as §1

BRAF = BRAF (Homo sapiens (Human), UniProt P15056)
Protocol: as §1

EPHA3 = EPHA3 (Homo sapiens (Human), UniProt P29320)
Protocol: as §1

SLK = SLK (Homo sapiens (Human), UniProt Q9H2G2)
Protocol: as §1

FLT3 = FLT3 (Homo sapiens (Human), UniProt P36888)
Protocol: as §1

EGFR(L858R, T790M) = EGFR(L858R, T790M) (Homo sapiens (Human), UniProt P00533, L858R/T790M)
EGFR(L858R, T790M), sequence (P00533 25-1210 T790M/L858R): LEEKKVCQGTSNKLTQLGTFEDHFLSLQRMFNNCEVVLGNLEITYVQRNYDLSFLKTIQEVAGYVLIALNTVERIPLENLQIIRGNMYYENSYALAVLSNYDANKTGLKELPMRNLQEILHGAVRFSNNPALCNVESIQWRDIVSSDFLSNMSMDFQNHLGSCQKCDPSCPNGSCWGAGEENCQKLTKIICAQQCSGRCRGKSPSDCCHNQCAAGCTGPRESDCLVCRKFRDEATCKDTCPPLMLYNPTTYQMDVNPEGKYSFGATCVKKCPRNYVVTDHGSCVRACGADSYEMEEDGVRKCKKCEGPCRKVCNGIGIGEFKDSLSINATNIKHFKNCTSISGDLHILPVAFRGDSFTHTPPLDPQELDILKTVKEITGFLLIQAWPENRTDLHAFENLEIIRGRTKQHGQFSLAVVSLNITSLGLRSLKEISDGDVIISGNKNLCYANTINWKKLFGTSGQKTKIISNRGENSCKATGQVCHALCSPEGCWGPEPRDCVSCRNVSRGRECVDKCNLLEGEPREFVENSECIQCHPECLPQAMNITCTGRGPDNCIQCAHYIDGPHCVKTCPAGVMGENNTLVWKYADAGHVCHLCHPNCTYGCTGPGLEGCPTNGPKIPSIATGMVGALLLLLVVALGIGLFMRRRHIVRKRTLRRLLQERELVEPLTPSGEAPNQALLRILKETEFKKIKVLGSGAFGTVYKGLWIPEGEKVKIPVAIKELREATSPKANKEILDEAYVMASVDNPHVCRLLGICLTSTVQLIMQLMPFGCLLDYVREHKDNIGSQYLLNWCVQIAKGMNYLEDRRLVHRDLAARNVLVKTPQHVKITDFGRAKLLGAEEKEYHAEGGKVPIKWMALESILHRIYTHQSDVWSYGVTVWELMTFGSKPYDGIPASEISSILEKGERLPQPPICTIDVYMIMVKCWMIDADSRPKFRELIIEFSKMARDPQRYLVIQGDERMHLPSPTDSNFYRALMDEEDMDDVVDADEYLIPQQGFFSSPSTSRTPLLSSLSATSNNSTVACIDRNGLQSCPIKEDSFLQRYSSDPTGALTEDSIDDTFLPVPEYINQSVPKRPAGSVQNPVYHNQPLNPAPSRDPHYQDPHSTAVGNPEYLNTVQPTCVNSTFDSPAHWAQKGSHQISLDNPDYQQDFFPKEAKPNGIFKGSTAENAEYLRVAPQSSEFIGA
Protocol: as §1

BUB1 = BUB1 (Homo sapiens (Human), UniProt O43683)
Protocol: as §1

CAMK1D, sequence (Q8IU85 whole entry): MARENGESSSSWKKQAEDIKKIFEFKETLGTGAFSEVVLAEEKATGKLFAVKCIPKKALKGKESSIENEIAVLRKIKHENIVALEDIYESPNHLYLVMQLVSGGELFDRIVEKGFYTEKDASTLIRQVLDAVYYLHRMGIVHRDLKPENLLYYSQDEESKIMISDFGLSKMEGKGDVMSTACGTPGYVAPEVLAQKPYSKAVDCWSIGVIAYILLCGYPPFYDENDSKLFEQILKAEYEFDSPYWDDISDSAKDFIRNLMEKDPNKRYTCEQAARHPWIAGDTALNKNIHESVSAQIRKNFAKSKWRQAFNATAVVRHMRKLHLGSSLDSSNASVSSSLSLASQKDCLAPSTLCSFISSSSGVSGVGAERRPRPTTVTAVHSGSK

| SMILES | remaining binding at 1 µM (CAMK1D) [%] | remaining binding at 1 µM (IGF1R) [%] | remaining binding at 1 µM (PFCDPK1(P.falciparum)) [%] | remaining binding at 1 µM (PFTAIRE2) [%] | remaining binding at 1 µM (YANK3) [%] | remaining binding at 1 µM (TAOK1) [%] | remaining binding at 1 µM (JNK1) [%] | remaining binding at 1 µM [1] [%] | remaining binding at 1 µM (NEK11) [%] | remaining binding at 1 µM (HIPK3) [%] | remaining binding at 1 µM (HPK1) [%] | remaining binding at 1 µM (CSNK1G3) [%] | remaining binding at 1 µM (GSK3B) [%] | remaining binding at 1 µM (ULK) [%] | remaining binding at 1 µM (FLT3-autoinhibited) [%] | remaining binding at 1 µM (ERK8) [%] | remaining binding at 1 µM (PIP5K2B) [%] | remaining binding at 1 µM (ACVR1) [%] | remaining binding at 1 µM (BMPR2) [%] | remaining binding at 1 µM [2] [%] | further results |
| --- | --- | --- | --- | --- | --- | --- | --- | --- | --- | --- | --- | --- | --- | --- | --- | --- | --- | --- | --- | --- | --- |
| CCN1CCN(Cc2cc(NC(=O)c3ccc(C)c(-c4ccc5nc(NC(=O)C6CC6)cn5c4)c3)cc(C(F)(F)F)c2)CC1 [Compound I-6, 3-(2-(cyclopropanecarboxamido)imidazo[1,2-a]pyridin-6-yl)-N-(3-((4-ethylpiperazin-1-yl)methyl)-5-(trifluoromethyl)phenyl)-4-methylbenzamide] | 93 | 11 | 88 | 3.6 | 100 | 4.5 | 96 | 9.4 | 89 | 98 | 0.75 | 92 | 100 | 100 | 58 | 3.1 | 86 | 100 | 100 | 100 | remaining binding at 1 µM [3]: 100%; remaining binding at 1 µM (CDK4-cyclinD1): 17%; remaining binding at 1 µM [4]: 100%; remaining binding at 1 µM (PDGFRA): 1.2%; remaining binding at 1 µM (MST3): 92%; remaining binding at 1 µM (CDK5): 52%; remaining binding at 1 µM (PCTK1): 28%; remaining binding at 1 µM (ADCK4): 91%; remaining binding at 1 µM (SGK): 92%; remaining binding at 1 µM (EGFR(G719S)): 35%; remaining binding at 1 µM (CSNK2A2): 100%; remaining binding at 1 µM [5]: 0.6%; remaining binding at 1 µM (BRAF): 21%; remaining binding at 1 µM (EPHA3): 34%; remaining binding at 1 µM (SLK): 2.4%; remaining binding at 1 µM (FLT3): 2.5%; remaining binding at 1 µM (EGFR(L858R, T790M)): 59%; remaining binding at 1 µM (BUB1): 97% |
| CCN1CCN(Cc2cc(NC(=O)c3ccc(C)c(-c4ccc5nc(NC(=O)C6CC6)cn5n4)c3)cc(C(F)(F)F)c2)CC1 [Compound I-2, 3-(2-(cyclopropanecarboxamido)imidazo[1,2-b]pyridazin-6-yl)-N-(3-((4-ethylpiperazin-1-yl)methyl)-5-(trifluoromethyl)phenyl)-4-methylbenzamide] | 97 | 0.7 | 84 | 0.9 | 91 | 3.9 | 96 | 5.1 | 65 | 56 | 0.1 | 96 | 93 | 89 | 56 | 2.2 | 93 | 100 | 100 | 97 | remaining binding at 1 µM [3]: 79%; remaining binding at 1 µM (CDK4-cyclinD1): 19%; remaining binding at 1 µM [4]: 78%; remaining binding at 1 µM (PDGFRA): 1.1%; remaining binding at 1 µM (MST3): 85%; remaining binding at 1 µM (CDK5): 6.6%; remaining binding at 1 µM (PCTK1): 16%; remaining binding at 1 µM (ADCK4): 75%; remaining binding at 1 µM (SGK): 83%; remaining binding at 1 µM (EGFR(G719S)): 45%; remaining binding at 1 µM (CSNK2A2): 94%; remaining binding at 1 µM [5]: 0.35%; remaining binding at 1 µM (BRAF): 11%; remaining binding at 1 µM (EPHA3): 41%; remaining binding at 1 µM (SLK): 1.6%; remaining binding at 1 µM (FLT3): 1%; remaining binding at 1 µM (EGFR(L858R, T790M)): 100%; remaining binding at 1 µM (BUB1): 100% |
